Assay results from patent EP4806899A1, “FUSED RING DERIVATIVE, PREPARATION METHOD THEREFOR AND USE THEREOF IN MEDICINE” (Shanghai Qilu Pharmaceutical Research and Development …, priority 2023, dated 2025).
pIC50: −log10 of the molar value.

Assays:
human CYP11B1 enzyme = target: T1, human CYP11B1 enzyme (Homo sapiens, UniProt P15538); assay: Enzyme inhibition activity assay in G402 cells stably expressing human CYP11B1 (cortisol production from 11-DC, LC/MS); assay type: cell-based; settings: 1 µM 11-DC, 16 hours, cortisol detected
T1 construct: the ORF of human CYP11B1 or CYP11B2 were transfected into G402 cells; expressed in transfected cells
T1 sequence (P15538 25-503): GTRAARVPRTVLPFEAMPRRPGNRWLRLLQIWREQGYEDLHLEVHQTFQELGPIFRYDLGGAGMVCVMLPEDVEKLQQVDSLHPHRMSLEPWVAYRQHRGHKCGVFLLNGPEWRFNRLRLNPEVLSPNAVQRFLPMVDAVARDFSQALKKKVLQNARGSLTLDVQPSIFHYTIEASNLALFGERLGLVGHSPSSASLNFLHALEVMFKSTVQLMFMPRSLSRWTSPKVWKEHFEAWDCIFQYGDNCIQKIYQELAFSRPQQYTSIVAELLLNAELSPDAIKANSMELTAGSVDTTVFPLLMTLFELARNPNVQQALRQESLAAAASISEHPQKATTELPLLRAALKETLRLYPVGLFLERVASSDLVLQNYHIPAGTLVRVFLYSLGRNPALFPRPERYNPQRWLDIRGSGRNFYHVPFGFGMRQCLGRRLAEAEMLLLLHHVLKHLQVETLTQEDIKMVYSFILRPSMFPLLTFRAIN
Text: (§1) G402 cells (ATCC, CRL 1440) are epithelioid cells isolated from the kidney of a patient with renal failure and are a type of leiomyoblastoma. For the screening of highly specific CYP11B2 inhibitors, we specifically used G402 cell lines stably expressing human CYP11B2 enzyme or human CYP11B1 enzyme for experimental development.
(§2) Construction of Stably Transfected Cell Lines: Expression plasmids containing suitable promoters, suitable drug resistance markers, and the ORF of human CYP11B1 or CYP11B2 were transfected into G402 cells using standard techniques. The cells were then screened using the specific puromycin resistance marker. Monoclonal cells stably expressing human CYP11B2 were selected for expansion, and 11-deoxycorticosterone (11-DOC) was used as the specific substrate to evaluate enzyme activity based on aldosterone production. Monoclonal cells stably expressing human CYP11B1 were selected for expansion, and 11-deoxycortisol (11-DC) was used as the specific substrate, with cortisol production as the detection target for specific enzyme activity evaluation. The G402 cell lines stably expressing CYP11B1/CYP11B2 were cultured at 37 °C, 5% CO2, 95% air in complete medium (McCoy's 5A + 10% FBS + 1% PS + 0.5 µg/mL puromycin).
(§3) Enzyme Inhibition Activity Assay: CYP11B1 G402/CYP11B2 G402 cells were spread out flatly in cell culture plates. After 24 hours, the medium was changed to an enzyme testing system (DMEM/F12 + 2.5% charcoal-stripped FCS). Small molecule inhibitors at various concentrations were added. After 1 hour, appropriate concentrations of specific substrates (1 µM 11-DOC / 1 µM 11-DC) were added and co-incubated with the cells for 16 hours. Cells were then collected, and specific products were detected using LC/MS methods with an AB SCIEX TRIPLE QUAD 5500+, CTO-40S instrument (CYP11B2 enzyme detecting aldosterone; CYP11B1 enzyme detecting cortisol).
(§4) The IC50 values of the compounds were determined based on the G402 testing system. The dose-dependent inhibition of enzyme activity was calculated by plotting the added inhibitor concentration (x-axis) against the percentage of product inhibitory activity relative to the control group (y-axis) based on product formation at various compound concentrations. The following data were then fitted using the least squares method with XLfit 5.5.0 for a four-parameter logistic curve fit: [formula] • Y-axis: Percentage of product inhibitory activity relative to the control group; • logIC50: IC50 was determined using XLFit.
(§5) The maximum enzyme activity corresponds to the amount of control product steroid/aldosterone in the absence of inhibitor, set as 100%. The minimum enzyme activity corresponds to the amount of reference control product steroid/aldosterone in the presence of inhibitor. Table 3 Inhibitory Activity of the Compounds of the Present Disclosure on CYP11B2 and CYP11B1

human CYP11B2 enzyme = target: T2, human CYP11B2 enzyme (Homo sapiens, UniProt P19099); assay: Enzyme inhibition activity assay in G402 cells stably expressing human CYP11B2 (aldosterone production from 11-DOC, LC/MS); assay type: cell-based; settings: 1 µM 11-DOC, 16 hours, aldosterone detected
T2 construct: the ORF of human CYP11B1 or CYP11B2 were transfected into G402 cells; expressed in transfected cells
T2 sequence (P19099 25-503): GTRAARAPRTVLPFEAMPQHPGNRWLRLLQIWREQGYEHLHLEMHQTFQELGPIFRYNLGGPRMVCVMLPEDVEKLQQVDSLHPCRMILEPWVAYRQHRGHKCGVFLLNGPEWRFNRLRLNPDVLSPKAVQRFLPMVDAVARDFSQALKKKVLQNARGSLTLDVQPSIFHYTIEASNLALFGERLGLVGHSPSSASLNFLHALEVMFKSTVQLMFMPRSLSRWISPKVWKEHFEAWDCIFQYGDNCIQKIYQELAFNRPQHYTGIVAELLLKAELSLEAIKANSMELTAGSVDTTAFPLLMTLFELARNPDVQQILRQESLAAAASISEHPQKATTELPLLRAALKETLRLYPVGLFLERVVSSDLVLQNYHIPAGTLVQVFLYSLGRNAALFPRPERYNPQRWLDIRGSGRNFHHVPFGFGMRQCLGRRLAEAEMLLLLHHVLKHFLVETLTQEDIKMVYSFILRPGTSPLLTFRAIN
Text: as §1, §2, §3, §4, §5

[1] = Pharmacokinetic determination in mice after gavage administration (P.O.); assay type: in vivo; settings: male, CD-1, mouse, po, 10 mg/kg, plasma
Procedure: Mice and rats were used as test animals to study the pharmacokinetic behavior of the compounds of the present disclosure in plasma following gavage administration (P.O.). Plasma samples were collected at specific time points, compound concentrations in plasma were detected by LC-MS/MS, and pharmacokinetic parameters were calculated to evaluate the pharmacokinetics.
• Mice, CD-1, male, Zhejiang Vital River Laboratory Animal Technology Co., Ltd. • Rats, Sprague-Dawley, male, Zhejiang Vital River Laboratory Animal Technology Co., Ltd., Shanghai Jihui Experimental Animal Breeding Co., Ltd.
After administration to mice and rats, venous blood samples of 0.03 mL and 0.2 mL, respectively, were collected at 0.0833 (IV), 0.25, 0.5, 1, 2, 4, 8, and 24 hours and placed in EDTA-K2 test tubes. Plasma was separated by centrifugation at 4 °C, 4000 g for 5 minutes and stored at -80 °C.
• 1) 10 µL of plasma sample was precipitated by adding 200 µL of acetonitrile, vortex mixed, and centrifuged for 15 minutes. • 2) The processed supernatant was diluted with water and analyzed by LC/MS/MS to determine the concentration of the test compound.
Pharmacokinetic parameters were calculated using WinNonlin 8.3. The pharmacokinetic parameters for mice P.O. are shown in Table 4, and for rats P.O. in Table 5. Cmax represents the maximum plasma concentration, T1/2 represents the terminal elimination half-life, MRTInf represents the mean residence time, and AUC represents the area under the plasma concentration-time curve. Table 4 Pharmacokinetic Parameters of the Compounds of the Present Disclosure in Mice

pIC50 (human CYP11B1 enzyme) | pIC50 (human CYP11B2 enzyme) | Cmax [1] | MRT inf [1] | half-life [1] | AUC(0-t) ([1]; read-out: AUC0-24) | SMILES
5.77 | 7.89 |  |  |  |  | COC(=O)N[C@@H]1CCOc2c(-c3ccc4c(ccc(=O)n4C)c3)cncc21 [Compound A42]
5.78 | 7.87 |  |  |  |  | [2H]C([2H])([2H])OC(=O)N[C@@H]1CCOc2c(-c3cc(Cl)c4c(ccc(=O)n4C)c3)cncc21 [Compound A54]
6.89 | 8.60 |  |  |  |  | [2H]C([2H])([2H])OC(=O)N[C@@H]1CCCc2c(-c3ccc4c(c3)CCC(=O)N4C)cncc21 [Compound D15]
5.92 | 8.12 |  |  |  |  | [2H]C([2H])([2H])NC(=O)N[C@@H]1CCCc2c(-c3cc(F)c4c(ccc(=O)n4C)c3)cncc21 [Compound A22]
6.51 | 8.60 |  |  |  |  | CNC(=O)N[C@@H]1CCOc2c(-c3ccc4c(c3)cc(C#N)n4C)cncc21 [Compound A37]
5.70 | 7.88 |  |  |  |  | COC(=O)N[C@@H]1CCOc2c(-c3cc(Cl)c4c(ccc(=O)n4C)c3)cncc21 [Compound A53]
6.53 | 8.12 |  |  |  |  | CNC(=O)N[C@@H]1CCCc2c(-c3ccc4c(c3)COC(=O)N4C)cncc21 [Compound A34]
5.66 | 7.83 |  |  |  |  | COC(=O)N[C@@H]1CCOc2c(-c3cc(F)c4c(ccc(=O)n4C)c3)cncc21 [Compound A49]
6.13 | 8.03 |  |  |  |  | CNC(=O)N[C@@H]1CCCc2c(-c3ccc4c(ccc(=O)n4C)c3)cncc21 [Compound A21]
5.39 | 7.95 |  |  |  |  | CCC(=O)N[C@@H]1CCCc2c(-c3cc(Cl)c4c(ccc(=O)n4C)c3)cncc21 [Compound C42]
6.31 | 8.21 |  |  |  |  | [2H]C([2H])([2H])OC(=O)N[C@@H]1CCOc2c(-c3ccc4c(c3)COC(=O)N4C)cncc21 [Compound A40]
5.51 | 7.90 |  |  |  |  | CN(C)C(=O)N[C@@H]1CCOc2c(-c3ccc4c(c3)CCC(=O)N4C)cncc21 [Compound A12]
6.95 | 8.44 |  |  |  |  | [2H]C([2H])([2H])OC(=O)N[C@@H]1CCCc2c(-c3ccc4c(c3)COC(=O)N4C)cncc21 [Compound A28]
6.74 | 8.85 |  |  |  |  | COC(=O)N[C@@H]1CCOc2c(-c3ccc4c(c3)cc(C#N)n4C)cncc21 [Compound A35]
5.41 | 7.51 |  |  |  |  | CCC(=O)N[C@@H]1CCCc2c(-c3ccc4c(c3)OCC(=O)N4C)cncc21 [Compound C09]

Further lines, the molecule ahead of its results:

SMILES | pIC50 (human CYP11B1 enzyme) | pIC50 (human CYP11B2 enzyme) | Cmax [1] | MRT inf [1] | half-life [1] | AUC(0-t) ([1]; read-out: AUC0-24)
CN1CCN([C@@H]2CCCc3c(-c4ccc5c(c4)CCC(=O)N5C)cncc32)C1=O [Compound D10] | 6.56 | 8.33 |  |  |  | 
CN1C(=O)CCc2cc(-c3cncc4c3CCC[C@H]4N3CCOC3=O)ccc21 [Compound D12] | 6.44 | 8.14 |  |  |  | 
COCC(=O)N[C@@H]1CCCc2c(-c3ccc4c(c3)CCC(=O)N4C)cncc21 [Compound D06] | 6.54 | 8.09 |  |  |  | 
[2H]C([2H])([2H])NC(=O)N[C@@H]1CCCc2c(-c3ccc4c(c3)COC(=O)N4C)cncc21 [Compound A16] |  | 8.02 | 51.7 µM | 2.37 h | 1.07 h | 184 µM·h
[2H]C([2H])([2H])N(C(=O)N[C@@H]1CCCc2c(-c3ccc4c(c3)CCC(=O)N4C)cncc21)C([2H])([2H])[2H] [Compound D16] | 5.91 | 7.71 |  |  |  | 
CCC(=O)N[C@@H]1CCCc2c(-c3ccc4c(c3)CCCC(=O)N4C)cncc21 [Compound C15] | 5.59 | 7.61 |  |  |  | 
CN(C)C(=O)N[C@@H]1CCCc2c(-c3ccc4c(c3)CCC(=O)N4C)cncc21 [Compound D11] | 5.98 | 8.13 |  |  |  | 
CCC(=O)N[C@@H]1CC=Cc2c(-c3ccc4c(c3)CCC(=O)N4C)cncc21 [Compound A04-P1] | 6.61 | 8.25 |  |  |  | 
C[C@H](F)C(=O)N[C@@H]1CCCc2c(-c3ccc4c(c3)CCC(=O)N4C)cncc21 [Compound D07-P2] | 5.79 | 7.93 |  |  |  | 
CCC(=O)N[C@@H]1CCCc2c(-c3ccc4c(c3)CNC(=O)N4C)cncc21 [Compound C06] | 5.62 | 7.51 |  |  |  | 
